Results as given in patent US20170008921A1, “C-3 NOVEL TRITERPENONE WITH C-28 REVERSE AMIDE DERIVATIVES AS HIV INHIBITORS” (HETERO RESEARCH FOUNDATION, priority 2015, published 2017).
Counter-ions that a name gives are not always drawn. Like-named read-outs stand apart in the source and are kept apart here.

How the values were obtained:
[1] = Single dose oral pharmacokinetic study; assay type: in vivo; conditions: mouse, Mice oral PK @30 mg/kg, plasma, vehicle 10% Solutol+20% PEG; for AUC(0-t): read-out: AUC0-t; for Cmax: read-out: Cmax
Description: The test item was administered through oral route to animals (rat/mice) at 30 mg/kg dose in a suitable vehicle (10% Solutol+20% PEG) at 10 ml/kg dose volume. Blood samples (˜50 μL at each time point) were collected from retro-orbital plexus using K3 EDTA as anticoagulant in eppendorf tubes at defined time intervals 30 minutes, 1 hour, 2 hour, 4 hour, 8 hour, 24 hour & 48 hour under light ether anaesthesia. The samples were centrifuged at 3500×g to separate plasma and stored at −80° C. until analysis. Plasma 25 μl for Mice were processed as per described in sample preparation.
Standard solutions of the test compound 1 mg/mL solutions were prepared in DMSO and further dilutions were made in methanol. […] To the test compound plasma extraction was carried out using Acetonitrile precipitation. After reconstitution with solvent (50% Acetonitrile in Buffer) samples were analyzed by LCMSMS to get the concentrations to calculate PK Parameters.

[2] = Cyto-toxicity (MTT assay); assay type: cell-based
Description: On day 1 calculate the number of cells required for the assay and seed 3×10^4 cells in 200 μl per well. Weigh the compound and dissolve it in DMSO to get 10 mM stock which is further diluted to 3 mM and 1 mM. […] Add DMSO to controls in a way to obtain final concentration of solvent that is not greater than 1%. Incubate for 4 days in 5% CO2 incubator at 37° C. On day 4, 100 μl of medium was removed from each well without disturbing the cells. Add 10 μl of MTT reagent and incubate for 4 hours at 5% CO2 incubator at 37° C. for formation of crystals. Add 200 μl of 0.1N acidic isopropanol to dissolve the crystals and read the plate at 590 nm. The values are mentioned in below Table-3 and Table-3A.

Compound | AUC(0-t) [1] | Cmax [1] | viability at 4 days, 0.01 µM [2] | viability at 4 days, 0.1 µM [2] | viability at 4 days, 1 µM [2] | other results
CC(C)C1=C2[C@H]3CC[C@@H]4[C@@]5(C)CC[C@H](OC(=O)[C@H]6C[C@@H](C(=O)O)C6(C)C)C(C)(C)[C@@H]5CC[C@@]4(C)[C@]3(C)CC[C@@]2(NC(=O)C(C)(C)NC(=O)c2ccc(Cl)cn2)CC1=O [Example 70, (1R,3S)-3-((((3aR,5aR,5bR,7aR,9S,11aR,11bR,13aS)-3a-(2-(5-chloropicolinamido)-2-methylpropanamido)-1-isopropyl-5a,5b,8,8,11a-pentamethyl-2-oxo-3,3a,4,5,5a,5b,6,7,7a,8,9,10,11,11a,11b,12,13,13a-octadecahydro-2H-cyclopenta[a]chrysen-9-yl)oxy)carbonyl)-2,2-dimethylcyclobutane-1-carboxylic acid] | 881 µg·h/mL | 36.6 µg/mL | – | – | – | –
Cc1cc(C(=O)NC(C)(C)C(=O)N[C@@]23CC[C@]4(C)[C@H](CC[C@@H]5[C@@]6(C)CC[C@H](OC(=O)[C@H]7C[C@@H](C(=O)O)C7(C)C)C(C)(C)[C@@H]6CC[C@]54C)C2=C(C(C)C)C(=O)C3)c(C)o1 [Example 33, (1R,3S)-3-((((3aR,5aR,5bR,7aR,9S,11aR,11bR,13aS)-3a-(2-(2,5-dimethylfuran-3-carboxamido)-2-methylpropanamido)-1-isopropyl-5a,5b,8,8,11a-pentamethyl-2-oxo-3,3a,4,5,5a,5b,6,7,7a,8,9,10,11,11a,11b,12,13,13a-octadecahydro-2H-cyclopenta[a]chrysen-9-yl)oxy)carbonyl)-2,2-dimethylcyclobutane-1-carboxylic acid] | 231 µg·h/mL | 11.4 µg/mL | – | – | – | –
CC(C)C1=C2[C@H]3CC[C@@H]4[C@@]5(C)CC[C@H](OC(=O)[C@H]6C[C@@H](C(=O)O)C6(C)C)C(C)(C)[C@@H]5CC[C@@]4(C)[C@]3(C)CC[C@@]2(NC(=O)C(C)(C)NC(=O)[C@H]2CCCNC2)CC1=O [Example 52, (1R,3S)-3-((((3aR,5aR,5bR,7aR,9S,11aR,11bR,13aS)-1-isopropyl-5a,5b,8,8,11a-pentamethyl-3a-(2-methyl-2-((S)-piperidine-3-carboxamido)propan amido)-2-oxo-3,3a,4,5,5a,5b,6,7,7a,8,9,10,11,11a,11b,12,13,13a-octadecahydro-2H-cyclopenta[a]chrysen-9-yl)oxy)carbonyl)-2,2-dimethylcyclobutane-1-carboxylic acid hydrochloride] | – | – | – | – | – | viability at 4 days, 0.001 µM ([2]; 0.001 μM, MTT, 4 days (Table 3A), read-out: Cytotoxicity % viability): 83%; viability at 4 days, 0.003 µM ([2]; 0.003 μM, MTT, 4 days (Table 3A), read-out: Cytotoxicity % viability): 89%; viability at 4 days, 0.01 µM ([2]; 0.01 μM, MTT, 4 days (Table 3A), read-out: Cytotoxicity % viability): 59%
CC(C)C1=C2[C@H]3CC[C@@H]4[C@@]5(C)CC[C@H](OC(=O)[C@H]6C[C@@H](C(=O)O)C6(C)C)C(C)(C)[C@@H]5CC[C@@]4(C)[C@]3(C)CC[C@@]2(NC(=O)C(C)(C)NC(=O)C(C)(C)N)CC1=O [Example 11, (1R,3S)-3-((((3aR,5aR,5bR,7aR,9S,11aR,11bR,13aS)-3a-(2-(2-amino-2-methylpropanamido)-2-methylpropanamido)-1-isopropyl-5a,5b,8,8,11a-pentamethyl-2-oxo-3,3a,4,5,5a,5b,6,7,7a,8,9,10,11,11a,11b,12,13,13a-octadecahydro-2H-cyclopenta[a]chrysen-9-yl)oxy)carbonyl)-2,2-dimethylcyclobutane-1-carboxylic acid hydrochloride] | – | – | 41% | 3% | 1% | –
CC(C)C1=C2[C@H]3CC[C@@H]4[C@@]5(C)CC[C@H](OC(=O)[C@H]6C[C@@H](C(=O)O)C6(C)C)C(C)(C)[C@@H]5CC[C@@]4(C)[C@]3(C)CC[C@@]2(NC(=O)C(C)(C)NC(=O)C2(c3ccccc3)CCCC2)CC1=O [Example 27, (1R,3S)-3-((((3aR,5aR,5bR,7aR,9S,11aR,11bR,13aS)-1-isopropyl-5a,5b,8,8,11a-pentamethyl-3a-(2-methyl-2-(1-phenylcyclopentane-1-carboxamido)propanamido)-2-oxo-3,3a,4,5,5a,5b,6,7,7a,8,9,10,11,11a,11b,12,13,13a-octadecahydro-2H-cyclopenta[a]chrysen-9-yl)oxy)carbonyl)-2,2-dimethylcyclobutane-1-carboxylic acid] | – | – | 52% | 2% | 0% | –
CC(C)C1=C2[C@H]3CC[C@@H]4[C@@]5(C)CC[C@H](OC(=O)[C@H]6C[C@@H](C(=O)O)C6(C)C)C(C)(C)[C@@H]5CC[C@@]4(C)[C@]3(C)CC[C@@]2(NC(=O)C(C)(C)NCc2ccc(Cl)cc2)CC1=O [Example 68, (1R,3S)-3-((((3aR,5aR,5bR,7aR,9S,11aR,11bR,13aS)-3a-(2-((4-chlorobenzyl)amino)-2-methylpropanamido)-1-isopropyl-5a,5b,8,8,11a-pentamethyl-2-oxo-3,3a,4,5,5a,5b,6,7,7a,8,9,10,11,11a,11b,12,13,13a-octadecahydro-2H-cyclopenta[a]chrysen-9-yl)oxy)carbonyl)-2,2-dimethylcyclobutane-1-carboxylic acid] | 272 µg·h/mL | 20 µg/mL | – | – | – | –
CC(C)C1=C2[C@H]3CC[C@@H]4[C@@]5(C)CC[C@H](OC(=O)[C@H]6C[C@@H](C(=O)O)C6(C)C)C(C)(C)[C@@H]5CC[C@@]4(C)[C@]3(C)CC[C@@]2(NC(=O)C(C)(C)NCC2(c3ccc(Cl)cc3)CC2)CC1=O [Example 69, (1R,3S)-3-((((3aR,5aR,5bR,7aR,9S,11aR,11bR,13aS)-3a-(2-(((1-(4-chlorophenyl)cyclopropyl)methyl)amino)-2-methylpropanamido)-1-isopropyl-5a,5b,8,8, 11a-pentamethyl-2-oxo-3,3a,4,5,5a,5b,6,7,7a,8,9,10,11,11a,11b,12,13,13a-octadecahydro-2H-cyclopenta[a]chrysen-9-yl)oxy)carbonyl)-2,2-dimethylcyclobutane-1-carboxylic acid] | – | – | 42% | 8% | 8% | –
CC(C)C1=C2[C@H]3CC[C@@H]4[C@@]5(C)CC[C@H](OC(=O)[C@H]6C[C@@H](C(=O)O)C6(C)C)C(C)(C)[C@@H]5CC[C@@]4(C)[C@]3(C)CC[C@@]2(NC(=O)C(C)(C)NC(=O)C2CCNCC2)CC1=O [Example 35, (1R,3S)-3-((((3aR,5aR,5bR,7aR,9S,11aR,11bR,13aS)-1-isopropyl-5a,5b,8,8,11a-pentamethyl-3a-(2-methyl-2-(piperidine-4-carboxamido)propanamido)-2-oxo-3,3a,4,5,5a,5b,6,7,7a,8,9,10,11,11a,11b,12,13,13a-octadecahydro-2H-cyclopenta[a]chrysen-9-yl)oxy)carbonyl)-2,2-dimethylcyclobutane-1-carboxylic acid hydrochloride] | – | – | – | – | – | viability at 4 days, 0.01 µM ([2]; 0.01 μM, MTT, 4 days (Table 3), read-out: Cytotoxicity % viability): 84%; viability at 4 days, 0.1 µM ([2]; 0.1 μM, MTT, 4 days (Table 3), read-out: Cytotoxicity % viability): 92%; viability at 4 days, 1 µM ([2]; 1 μM, MTT, 4 days (Table 3), read-out: Cytotoxicity % viability): 77%
CC(C)C1=C2[C@H]3CC[C@@H]4[C@@]5(C)CC[C@H](OC(=O)[C@H]6C[C@@H](C(=O)O)C6(C)C)C(C)(C)[C@@H]5CC[C@@]4(C)[C@]3(C)CC[C@@]2(NC(=O)C(C)(C)NS(C)(=O)=O)CC1=O [Example 63, sodium (1R,3S)-3-((((3aR,5aR,5bR,7aR,9S,11aR,11bR,13aS)-1-isopropyl-5a,5b,8,8,11a-pentamethyl-3a-(2-methyl-2-(methylsulfonamido)propanamido)-2-oxo-3,3a,4,5,5a,5b,6,7,7a,8,9,10,11,11a,11b,12,13,13a-octadecahydro-2H-cyclopenta[a]chrysen-9-yl)oxy)carbonyl)-2,2-dimethylcyclobutane-1-carboxylate] | – | – | 51% | 16% | 0% | –
CCN1CCN(CC(=O)NC(C)(C)C(=O)N[C@@]23CC[C@]4(C)[C@H](CC[C@@H]5[C@@]6(C)CC[C@H](OC(=O)[C@H]7C[C@@H](C(=O)O)C7(C)C)C(C)(C)[C@@H]6CC[C@]54C)C2=C(C(C)C)C(=O)C3)CC1 [Example 9, (1R,3S)-3-((((3aR,5aR,5bR,7aR,9S,11aR,11bR,13aS)-3a-(2-(2-(4-ethylpiperazin-1-yl)acetamido)-2-methylpropanamido)-1-isopropyl-5a,5b,8,8,11a-pentamethyl-2-oxo-3,3a,4,5,5a,5b,6,7,7a,8,9,10,11,11a,11b,12,13,13a-octadecahydro-2H-cyclopenta[a]chrysen-9-yl)oxy)carbonyl)-2,2-dimethylcyclobutane-1-carboxylic acid] | – | – | 100% | 53% | 14% | –
